# In PMC8434392, “Harnessing the Anti-Nociceptive Potential of NK2 and NK3 Ligands in the Design of New Multifunctional μ/δ-Opioid Agonist–Neurokinin Antagonist Peptidomimetics” (Molecules, 2021):
# Marks after values point to notes of the source that are not given here.
# Key:
# human recombinant DOR = target: T1, human recombinant DOR (Homo sapiens, UniProt P41143); parameters: method as in PMID 23007594; conditions: data from reported literature ref 30, cited from earlier work; for DOR α ± SEM: intrinsic activity
# T1 construct: expressed in transfected cells; host or cells: CHO cells (gift from Prof. Girolamo Calo', Ferrara University)
# T1 sequence (P41143 whole entry): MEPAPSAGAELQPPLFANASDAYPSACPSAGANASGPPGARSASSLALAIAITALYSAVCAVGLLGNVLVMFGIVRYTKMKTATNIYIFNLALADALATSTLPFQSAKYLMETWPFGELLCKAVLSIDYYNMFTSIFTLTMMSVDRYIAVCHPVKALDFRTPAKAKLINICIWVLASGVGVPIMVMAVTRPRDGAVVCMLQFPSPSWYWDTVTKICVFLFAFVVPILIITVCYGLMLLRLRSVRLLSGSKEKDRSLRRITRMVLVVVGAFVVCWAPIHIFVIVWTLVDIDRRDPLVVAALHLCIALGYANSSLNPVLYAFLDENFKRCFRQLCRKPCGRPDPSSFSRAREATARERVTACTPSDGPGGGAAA
# hMOR [1] = target: hMOR; parameters: method as in PMID 15094830, PMID 32365707; conditions: Figure 1B; read-out: Ki (CHO-hMOR); cited from earlier work
# hMOR [2] = system: hMOR; parameters: method as in PMID 15094830, PMID 32365707; conditions: Figure 1B; read-out: EC50 (CHO-hMOR); cited from earlier work
# hNK3 = target: hNK3; parameters: method as in PMID 17728699; conditions: Figure 1A; cited from earlier work
# NK3 receptor [3] = system: NK3 receptor; parameters: method as in PMID 17728699; conditions: Figure 1A; cited from earlier work
# NK3 receptor [4] = system: NK3 receptor; parameters: method as in PMID 17728699; conditions: Figure 1A; cited from earlier work; remark: listed apart in the source
# human recombinant MOR = target: T2, human recombinant MOR (Homo sapiens, UniProt P35372); experiment: Calcium mobilization assay, CHO MOR cells with Gαqi5; format: cell-based; conditions: intrinsic activity: Emax of ligand / Emax of dermorphin
# T2 construct: expressed in transfected cells; host or cells: CHO cells (gift from Prof. Girolamo Calo', Ferrara University)
# T2 sequence (P35372 whole entry): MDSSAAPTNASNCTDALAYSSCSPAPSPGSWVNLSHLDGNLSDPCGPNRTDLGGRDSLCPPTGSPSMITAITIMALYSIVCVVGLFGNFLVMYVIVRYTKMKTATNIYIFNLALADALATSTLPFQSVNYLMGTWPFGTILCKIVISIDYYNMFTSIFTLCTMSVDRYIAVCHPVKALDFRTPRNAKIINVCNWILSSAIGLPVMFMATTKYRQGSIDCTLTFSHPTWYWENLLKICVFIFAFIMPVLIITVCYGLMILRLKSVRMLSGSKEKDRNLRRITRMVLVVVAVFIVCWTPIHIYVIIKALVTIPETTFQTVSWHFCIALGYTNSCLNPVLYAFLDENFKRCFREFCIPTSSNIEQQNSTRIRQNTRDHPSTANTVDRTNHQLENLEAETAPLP
# human recombinant KOR = target: T3, human recombinant KOR (Homo sapiens, UniProt P41145); experiment: Calcium mobilization assay, CHO KOR cells with Gαqi5; format: cell-based
# T3 construct: expressed in transfected cells; host or cells: CHO cells (gift from Prof. Girolamo Calo', Ferrara University)
# T3 sequence (P41145 whole entry): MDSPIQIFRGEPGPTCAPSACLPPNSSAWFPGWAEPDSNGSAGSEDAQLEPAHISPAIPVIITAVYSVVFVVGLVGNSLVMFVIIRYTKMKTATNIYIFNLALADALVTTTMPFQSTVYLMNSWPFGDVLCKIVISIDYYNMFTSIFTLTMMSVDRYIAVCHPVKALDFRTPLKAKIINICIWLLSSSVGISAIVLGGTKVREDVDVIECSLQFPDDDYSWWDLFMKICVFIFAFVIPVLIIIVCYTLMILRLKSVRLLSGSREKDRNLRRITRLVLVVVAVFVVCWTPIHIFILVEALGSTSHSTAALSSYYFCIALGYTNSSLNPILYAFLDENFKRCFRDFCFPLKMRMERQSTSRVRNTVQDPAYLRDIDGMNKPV
smiles,measurement,setting,value
CC[C@H](C)[C@H](NC(=O)[C@H](CCCNC(=N)N)NC(=O)[C@H](CCCNC(=N)N)NC(=O)[C@H](CC(C)C)NC(=O)[C@H](Cc1ccccc1)NC(=O)CNC(=O)CNC(=O)[C@@H](N)Cc1ccc(O)cc1)C(=O)N[C@@H](CCCNC(=N)N)C(=O)N1CCC[C@H]1C(=O)N[C@@H](CCCCN)C(=O)N[C@@H](CC(C)C)C(=O)N[C@@H](CCCCN)C(=O)N[C@@H](Cc1c[nH]c2ccccc12)C(=O)N[C@@H](CC(=O)O)C(=O)N[C@@H](CC(N)=O)C(=O)N[C@@H](CCC(N)=O)C(=O)O [dynorphin A],DOR α ± SEM,human recombinant DOR,0.99 ± 0.04 ^a
"Cc1cc(O)cc(C)c1C[C@H](N)C(=O)N[C@H](CCCNC(=N)N)C(=O)N[C@@H](Cc1ccccc1)C(=O)N[C@@H](CCCCN)C(N)=O [Dmt-DALDA, H-Dmt-D-Arg-Phe-Lys-NH2]",Ki,hMOR [1],0.23 nM
same,EC50,hMOR [2],0.51 nM
CC[C@H](NC(=O)c1c(O)c(-c2ccccc2)nc2ccccc12)c1ccccc1 [Talnetant],Ki,hNK3,2 nM
same,pA2 (Ca2+ mobilisation),NK3 receptor [3],8.1
same,pA2 (IP accumulation),NK3 receptor [4],7.7
"C[C@@H](NC(=O)[C@@H](N)Cc1ccc(O)cc1)C(=O)N[C@@H](Cc1ccccc1)C(=O)NCC(=O)N[C@@H](Cc1ccc(O)cc1)C(=O)N1CCC[C@H]1C(=O)N[C@@H](CO)C(N)=O [dermorphin, reference compound]",MOR α ± SEM,human recombinant MOR,1.00
same,KOR EC50 ± SEM (nM),"human recombinant KOR; calcium mobilization, CHO KOR Gαqi5, maximum tested concentration 10 µM, crc = concentration-response curve",inactive
same,KOR α ± SEM,human recombinant KOR; intrinsic activity: Emax of ligand / Emax of dynorphin A,inactive
same,DOR EC50 ± SEM (nM),"human recombinant DOR; calcium mobilization, chimeric G protein",Inactive ^a
same,DOR α ± SEM,human recombinant DOR,Inactive ^a
